Measurements published in publication PMC12305662, “Fragment-Based Development of Small Molecule Inhibitors Targeting Mycobacterium tuberculosis Cholesterol Metabolism” (Journal of Medicinal Chemistry, 2025).
In brackets after ≈: the same amount, converted by molar mass. Several values for one entry are separate records, joined by “and”; a condition that tells them apart may be missing. Identical values can stand only once. Like-named read-outs stand apart in the source and are kept apart here.

How the values were obtained:
CYP125 [1] = target: T1, CYP125 (Mycobacterium tuberculosis, UniProt P9WPP1); assay: biochemical; assay type: binding
T1 sequence (P9WPP1 whole entry): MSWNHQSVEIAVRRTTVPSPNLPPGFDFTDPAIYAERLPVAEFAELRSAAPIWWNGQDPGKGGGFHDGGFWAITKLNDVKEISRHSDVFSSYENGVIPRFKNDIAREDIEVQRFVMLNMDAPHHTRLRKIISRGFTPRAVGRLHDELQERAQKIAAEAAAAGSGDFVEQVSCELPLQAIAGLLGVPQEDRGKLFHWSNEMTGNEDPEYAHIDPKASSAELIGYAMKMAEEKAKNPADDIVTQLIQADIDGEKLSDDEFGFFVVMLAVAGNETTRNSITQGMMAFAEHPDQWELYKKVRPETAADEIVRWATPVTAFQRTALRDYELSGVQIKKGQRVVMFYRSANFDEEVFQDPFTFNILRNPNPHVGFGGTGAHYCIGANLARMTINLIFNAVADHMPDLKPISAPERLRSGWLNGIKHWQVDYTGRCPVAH

CYP125 [2] = target: T1, CYP125; assay: LC-MS substrate turnover assay (cholest-4-en-3-one); assay type: biochemical
Mtb H37Rv [3] = assay: Extracellular Mtb growth on cholesterol, MABA MIC99; assay type: cell-based, Mycobacterium tuberculosis; conditions: Mycobacterium tuberculosis, H37RV
Mtb H37Rv [4] = assay: Depletion of intracellular ATP (BacTiter Glo), Mtb on cholesterol; assay type: cell-based, Mycobacterium tuberculosis; conditions: 2 weeks post-compound treatment
Mtb CDC1551 [5] = assay: as above; assay type: cell-based; conditions: Mycobacterium tuberculosis, cholesterol as sole carbon source
Mtb (Erdman) = assay: Extracellular Mtb (Erdman) growth on cholesterol-supplemented (0.01%) media, MABA; assay type: cell-based, Mycobacterium tuberculosis; conditions: Mycobacterium tuberculosis, ERDMAN, 168 h, MABA 1 week post-compound treatment, mean ± SD n = 3, read-out: mixed media IC50 (Erdman)
H37Rv Mtb = assay: Extracellular Mtb growth, MABA MIC90 (drug susceptible strain); assay type: cell-based; conditions: Mycobacterium tuberculosis
HepG2 cells = assay: HepG2 cytotoxicity assay (CellTiter Glo ATP); assay type: cell-based; conditions: ATP (RLU)
Experimental: Compounds were tested against HepG2 cells for their ability to inhibit ATP production as a measure of cytotoxicity. HepG2 cells were cultured in DMEM supplemented with 10% (v/v) FBS, Hepes, L-glutamine and glucose or galactose. Compounds were serial diluted in microtiter plates (as described above) and HepG2 cells were added at a final concentration of 20,000 cells per well. Inhibition of ATP levels was noted by adding CellTiter Glo (Promega) reagent at a 1:10 dilution and luminescence was noted after 10 min incubation at room temperature.

[6] = system: Mtb/iniB reporter (cell wall damage response); assay type: cell-based, Mycobacterium tuberculosis; conditions: 50–0.05 μM, days 1, 2, 4, 7
[7] = system: Mtb/recA reporter (DNA damage response); assay type: cell-based, Mycobacterium tuberculosis; conditions: 50–0.05 μM, days 1, 2, 4, 7
[8] = system: Mtb/radA reporter (DNA damage response); assay type: cell-based, Mycobacterium tuberculosis; conditions: 50–0.05 μM, days 1, 2, 4, 7
CYP1A = target: T2, CYP1A (Homo sapiens, UniProt P05177); assay: Inhibition of human liver microsomal P450s; assay type: in vitro ADME
T2 construct: from tissue; host or cells: human liver microsomes
T2 sequence (P05177 2-516 limits assumed): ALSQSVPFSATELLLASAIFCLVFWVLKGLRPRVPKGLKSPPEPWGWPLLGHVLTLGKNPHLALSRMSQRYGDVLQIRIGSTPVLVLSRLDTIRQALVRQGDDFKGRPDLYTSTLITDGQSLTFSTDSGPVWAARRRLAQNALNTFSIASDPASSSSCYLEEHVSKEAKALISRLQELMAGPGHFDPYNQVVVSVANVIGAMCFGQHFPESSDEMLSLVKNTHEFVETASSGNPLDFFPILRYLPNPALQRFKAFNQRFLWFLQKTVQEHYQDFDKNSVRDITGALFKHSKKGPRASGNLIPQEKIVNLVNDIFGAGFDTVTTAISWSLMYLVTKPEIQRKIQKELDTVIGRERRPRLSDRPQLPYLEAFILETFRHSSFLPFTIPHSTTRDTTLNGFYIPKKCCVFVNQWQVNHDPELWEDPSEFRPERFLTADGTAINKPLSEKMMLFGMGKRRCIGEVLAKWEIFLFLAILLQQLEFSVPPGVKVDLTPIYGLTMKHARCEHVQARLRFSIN
Description: (§1) Table S8. Inhibition of human liver microsomal P450s. Inhibition constants (IC 50 values, µM) of
(§2) following substrates: CYP1A-ethoxyresorufin, CYP2C19- mephenytoin, CYP2C9-tolbutamide, CYP2D6-
(§3) dextromethorphan, CYP3A4-midazolam/testosterone.

CYP2C19 = target: T3, CYP2C19 (Homo sapiens, UniProt P33261); assay: Inhibition of human liver microsomal P450s; assay type: in vitro ADME
T3 construct: from tissue; host or cells: human liver microsomes
T3 sequence (P33261 whole entry): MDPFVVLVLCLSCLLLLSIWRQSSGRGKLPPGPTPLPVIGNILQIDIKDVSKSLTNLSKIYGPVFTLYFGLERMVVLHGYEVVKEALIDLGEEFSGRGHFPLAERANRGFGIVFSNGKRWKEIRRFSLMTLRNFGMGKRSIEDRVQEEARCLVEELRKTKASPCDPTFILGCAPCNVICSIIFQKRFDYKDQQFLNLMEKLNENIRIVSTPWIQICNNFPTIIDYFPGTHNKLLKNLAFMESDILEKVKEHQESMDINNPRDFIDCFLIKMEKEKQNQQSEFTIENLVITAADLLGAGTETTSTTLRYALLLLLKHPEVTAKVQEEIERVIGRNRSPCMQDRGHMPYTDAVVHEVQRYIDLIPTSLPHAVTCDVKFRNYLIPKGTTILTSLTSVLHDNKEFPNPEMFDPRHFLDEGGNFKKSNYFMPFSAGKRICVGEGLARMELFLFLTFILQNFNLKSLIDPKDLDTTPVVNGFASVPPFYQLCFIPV
Description: as §1, §2, §3

CYP2C9 = target: T4, CYP2C9 (Homo sapiens, UniProt P11712); assay: Inhibition of human liver microsomal P450s; assay type: in vitro ADME
T4 construct: from tissue; host or cells: human liver microsomes
T4 sequence (P11712 whole entry): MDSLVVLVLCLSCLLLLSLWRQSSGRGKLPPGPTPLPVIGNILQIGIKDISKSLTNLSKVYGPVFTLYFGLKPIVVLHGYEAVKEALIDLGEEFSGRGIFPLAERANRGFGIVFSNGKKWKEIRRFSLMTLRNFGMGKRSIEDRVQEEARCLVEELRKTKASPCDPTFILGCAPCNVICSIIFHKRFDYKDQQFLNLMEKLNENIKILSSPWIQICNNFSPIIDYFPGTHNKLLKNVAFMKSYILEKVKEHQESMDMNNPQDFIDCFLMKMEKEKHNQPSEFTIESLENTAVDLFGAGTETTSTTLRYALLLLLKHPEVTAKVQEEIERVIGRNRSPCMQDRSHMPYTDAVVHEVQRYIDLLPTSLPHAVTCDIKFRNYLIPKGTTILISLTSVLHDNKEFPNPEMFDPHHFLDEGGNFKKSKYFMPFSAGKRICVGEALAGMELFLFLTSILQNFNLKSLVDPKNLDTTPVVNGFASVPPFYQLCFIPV
Description: as §1, §2, §3

CYP2D6 = target: T5, CYP2D6 (Homo sapiens, UniProt P10635); assay: Inhibition of human liver microsomal P450s; assay type: in vitro ADME
T5 construct: from tissue; host or cells: human liver microsomes
T5 sequence (P10635 whole entry): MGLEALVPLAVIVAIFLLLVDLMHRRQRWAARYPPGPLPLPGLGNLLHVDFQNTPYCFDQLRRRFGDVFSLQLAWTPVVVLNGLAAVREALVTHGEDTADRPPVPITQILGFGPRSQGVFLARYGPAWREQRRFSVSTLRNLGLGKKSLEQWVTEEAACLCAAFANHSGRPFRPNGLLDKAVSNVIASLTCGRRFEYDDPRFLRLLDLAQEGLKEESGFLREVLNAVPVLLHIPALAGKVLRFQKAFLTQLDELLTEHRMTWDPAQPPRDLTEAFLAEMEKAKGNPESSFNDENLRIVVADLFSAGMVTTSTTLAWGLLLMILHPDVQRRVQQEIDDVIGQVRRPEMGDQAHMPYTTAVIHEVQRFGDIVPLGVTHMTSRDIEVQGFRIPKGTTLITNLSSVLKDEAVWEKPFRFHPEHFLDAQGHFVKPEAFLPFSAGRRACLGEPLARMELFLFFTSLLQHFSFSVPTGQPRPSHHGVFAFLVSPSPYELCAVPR
Description: as §1, §2, §3

CYP3A4 = target: T6, CYP3A4 (Homo sapiens, UniProt P08684); assay: Inhibition of human liver microsomal P450s; assay type: in vitro ADME
T6 construct: from tissue; host or cells: human liver microsomes
T6 sequence (P08684 whole entry): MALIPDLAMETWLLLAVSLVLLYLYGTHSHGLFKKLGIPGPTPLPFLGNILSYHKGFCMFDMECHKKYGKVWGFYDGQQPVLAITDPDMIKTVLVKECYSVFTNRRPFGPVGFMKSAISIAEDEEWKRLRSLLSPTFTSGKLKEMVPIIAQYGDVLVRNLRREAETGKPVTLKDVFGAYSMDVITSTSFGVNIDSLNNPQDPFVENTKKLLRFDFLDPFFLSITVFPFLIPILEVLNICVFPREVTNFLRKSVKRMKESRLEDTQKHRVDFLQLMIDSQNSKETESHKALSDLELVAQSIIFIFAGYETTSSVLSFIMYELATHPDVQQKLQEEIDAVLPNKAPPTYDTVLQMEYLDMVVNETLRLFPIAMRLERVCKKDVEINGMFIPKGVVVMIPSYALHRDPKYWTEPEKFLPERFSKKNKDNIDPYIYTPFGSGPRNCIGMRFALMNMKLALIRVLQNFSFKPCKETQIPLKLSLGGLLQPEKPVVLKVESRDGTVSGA
Description: as §1, §2, §3

[9] = system: several human P450 isoforms (panel: CYP1A, CYP2C19, CYP2C9, CYP2D6, CYP3A4); assay: in vitro; assay type: in vitro ADME
Experimental: As several P450 isoforms were inhibited as concentrations <5 μM, the compound has potential to cause drug–drug interactions and further optimization of the benzylpyridine scaffold to improve CYP125/142 selectivity would be required for in vivo applications.
as §1, §2, §3

CYP142 = CYP142 (Mycobacterium tuberculosis, UniProt P9WPL5)
Sequence of CYP142 (P9WPL5 whole entry): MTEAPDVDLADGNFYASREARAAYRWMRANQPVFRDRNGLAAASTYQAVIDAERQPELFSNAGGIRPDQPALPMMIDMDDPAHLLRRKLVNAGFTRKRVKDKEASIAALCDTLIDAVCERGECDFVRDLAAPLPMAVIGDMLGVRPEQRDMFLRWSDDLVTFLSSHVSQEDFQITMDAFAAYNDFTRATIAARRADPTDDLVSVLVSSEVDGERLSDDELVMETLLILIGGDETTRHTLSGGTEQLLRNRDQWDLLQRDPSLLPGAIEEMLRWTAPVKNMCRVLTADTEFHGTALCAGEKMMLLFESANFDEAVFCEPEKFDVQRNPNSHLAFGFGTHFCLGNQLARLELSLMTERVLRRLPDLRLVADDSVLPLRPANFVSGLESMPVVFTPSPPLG

[10] = system: uninfected THP-1 macrophages; assay: THP-1 cytotoxicity (ATPLite); conditions: concentrations up to 50 μM
Mtb CDC1551 [11] = assay: Depletion of intracellular ATP, Mtb on glucose; conditions: read-out: ATP IC50 (W1) CDC1551, glucose media; glucose as sole carbon source; 1 week
Experimental: (Mtb) H37Rv or CDC1551 strains were grown in Middlebrook 7H9 broth medium (Difco) supplemented with 0.3 g/L casitone, 0.81 g/L NaCl, 0.05% (v/v) tyloxapol, and either 97 mg/L cholesterol, 4 g/L glucose, or 0.2% glycerol. For inhibitor assays, a 10-fold serial dilution of the test compounds was made in the desired medium in duplicate rows of a 96-well plate. Mtb cells were then added to all the wells at the final concentration of 1 × 10^4 CFU, and plates were incubated at 37 °C for up to 15 days. Minimum inhibitory concentrations (MIC99) were determined using the Microplate Alamar Blue Assay (MABA) on day 15.
BacTiter Glo reagent (Promega) was added to microtiter plates (1:10 dilution) and luminescence was recorded after 15 min of incubation at room temperature. […] Isoniazid or p-amino salicylic acid were used as positive control compounds for all experiments. Reported MIC and IC50 values are the mean of duplicate treatments.

[12] = proportion of binding affinity attributed to the 1a-ii hotspot

COc1ccc(CNc2ccc(Cc3ccncc3)cc2)cc1 [5m, N-(4-Methoxybenzyl)-4-(pyridin-4-ylmethyl)aniline]
improvement in binding affinity KD 1a/5m, CYP125 (CYP125 [1]): > 1000 fold | ligand efficiency (LE) (CYP125 [1]): > 0.4 | group efficiency (GE) of the benzylamine (CYP125 [1]; CYP125 and CYP142): 0.20–0.50 | Kd (CYP125 [1]; KD, dual CYP125/142 ligand): 0.04 to 0.16 µM and ~0.1 µM | ΔΔG [5m-1a], CYP125 (CYP125 [1]; [12]): 0.5 | Kd (CYP125 [1]; read-out: KD (μM) CYP125): 0.04 ± 0.021 µM | IC50 (CYP125 [2]; CYP125 0.5 μM, cholest-4-en-3-one 5 µM, LC-MS, read-out: CYP125A1 IC50): 350 ± 40 nM | Ki (CYP125 [2]; estimated by Cheng-Prusoff, cholest-4-en-3-one Km CYP125 = 2.1 µM, read-out: CYP125A1 KI): < 1000 nM and 100 nM | Ki (CYP125 [2]; one bound given for both enzymes, read-out: KI, enzyme activity in vitro (CYP125/142)): < 100 nM | Ki (CYP125 [2]; one range given for both enzymes, read-out: KI, catalytic activity in vitro (CYP125/142)): 50 to 100 nM | MIC99 (Mtb H37Rv [3]; 336 h, cholesterol as sole carbon source, 2 weeks post-compound treatment, read-out: MABA-MIC99 (W2) H37Rv, cholesterol): 1.5 µM | MIC99 (Mtb H37Rv [3]; 336 h, cholesterol as sole carbon source, 2 weeks, conversion of 1.5 μM, read-out: MIC99 H37Rv, cholesterol): ~0.46 µg/mL | MIC99 (Mtb H37Rv [3]; read-out: MIC99, growth of Mtb in extracellular assays): 0.4 to 1.5 µM | IC50 (Mtb H37Rv [4]; Mycobacterium tuberculosis, H37RV, 336 h, H37Rv, bovine serum albumin, read-out: ATP IC50 (W2), cholesterol media with BSA): 2300 nM | IC50 (Mtb H37Rv [4]; Mycobacterium tuberculosis, H37RV, 336 h, H37Rv, casitone, read-out: ATP IC50 (W2), cholesterol media with casitone): 1500 nM | IC50 (Mtb H37Rv [4]; Mycobacterium tuberculosis, H37RV, 336 h, cholesterol as sole carbon source, read-out: ATP-IC50 (W2) H37Rv, cholesterol): 1200 nM | IC50 (Mtb H37Rv [4]; cholesterol as sole carbon source, read-out: ATP-IC50 (W2) H37Rv, cholesterol): 1100 nM | IC50 (Mtb CDC1551 [5]; CDC1551, 168 h, 1 week post-compound treatment, read-out: ATP-IC50 (W1) CDC1551, cholesterol): 590 nM | IC50 (Mtb CDC1551 [5]; CDC1551, 336 h, 2 weeks post-compound treatment, read-out: ATP-IC50 (W2) CDC1551, cholesterol): 9400 nM | IC50 (Mtb (Erdman)): 2900 ± 190 nM | MIC90 (H37Rv Mtb; 168 h, read-out: MIC90 (W1) H37Rv): 0.78 µM (≈ 0.237 µg/mL) | MIC90 (H37Rv Mtb; 336 h, MABA 2 weeks post-compound treatment, read-out: MIC90 (W2) H37Rv): 6.25 µM (≈ 1.9 µg/mL) | HepG2 LD50 / IC50, galactose media (HepG2 cells; galactose-containing media, mean ± SD n = 2): 3200 nM | HepG2 LD50 / IC50, glucose media (HepG2 cells; standard (glucose-containing) media): > 50000 nM | upregulation of iniB reporter [6]: did not induce the upregulation | upregulation of recA reporter [7]: did not induce the upregulation | upregulation of radA reporter [8]: did not induce the upregulation | IC50 (CYP1A): 820 nM | IC50 (CYP2C19): 440 nM | IC50 (CYP2C9): 1860 nM | IC50 (CYP2D6): 330 nM | IC50 (CYP3A4; CYP3A4 IC50 (midazolam), substrate midazolam (first value of cell)): 520 nM | IC50 (CYP3A4; CYP3A4 IC50 (testosterone), substrate testosterone (second value of cell)): 1820 nM | IC50 [9]: < 5000 nM | Kd (CYP142): 80 nM | ΔΔG [5m-1a], CYP142 (CYP142; [12]): 0.2 | THP-1 cytotoxicity in words [10]: no effect on THP-1 cell viability | IC50 (Mtb CDC1551 [11]): 4700 nM
